{
  "source": "patent US20120329879A1",
  "about": "“BETA-ADRENERGIC RECEPTOR AGONISTS AND USES THEREOF” (THE UNIVERSITY OF TENNESSEE RESEARCH FOUNDATION, priority 2010, published 2012)",
  "key": {"TNFalpha": {"tested_on": "TNFalpha", "assay": "TNFalpha ELISA of retina of diabetic rats", "format": "in vivo, rat", "excerpt": "(§1) The other eye from each animal was used for protein analyses for inflammatory markers and insulin receptor signaling. Western blotting was done as described (9). Antibodies used were total insulin receptor beta (1:500, Cellular Signaling, Danvers, Mass.), phosphorylated insulin receptor beta (Tyr 1150/1151, 1:500, Cellular Signaling, Danvers, Mass.), total Akt (1:500, Cellular Signaling, Danvers, Mass.), and phosphorylated Akt (Ser 473, 1:500, Cellular Signaling, Danvers, Mass.). For analyses of the data, mean densitometry values were obtained using the Kodak 2.0 software. The ratio of phosphorylated protein was compared to levels of total protein.\n(§2) To determine the TNF concentration (Pierce, Rockford Ill.) and levels of cleaved caspase 3 (Cellular Signaling, Danvers, Mass.), ELISA analyses were done according to manufacturers instructions, except that equal protein was loaded into the cleaved caspase 3 ELISA so the optical density numbers can be used."}, "Rat Müller cells (rMC-1)": {"tested_on": "Rat Müller cells (rMC-1)", "assay": "TNFalpha and cleaved caspase 3 ELISA in Müller cells cultured in high glucose", "format": "cell-based", "protocol": "Human retinal endothelial cells (HREC) were purchased from Cell Systems (Kirkland, Wash.) and grown in either basal (5 mM glucose) or growth (25 mM glucose) media. Both media is supplemented with 10% FBS and antibiotics. The day prior to experiments, cells are serum-starved for 18-24 hours. Rat Müller cells (rMC-1) were grown in DMEM medium with 5 mM glucose or 25 mM glucose. Media was supplemented with 10% FBS and antibiotics. Cells were serum starved prior to all experiments for 18-24 hours.\nHuman retinal endothelial cells (HREC) and rat Muller cells (rMC-1) in both glucose conditions were treated with Compound 2 at doses of 10 nM, 50 nM, 100 nM, 1 μM, and 10 μM of Compound 2. Cells of each type were grown in medium containing L-glucose to control for changes in osmolarity. 10 μM isoproterenol was also used for each condition as a positive control. Müller cells were treated for 1 hour and 24 hours, while HREC were treated for 30 and 60 minutes.\nFollowing treatment, cells were collected into lysis buffer containing protease and phosphatase inhibitors. ELISA analyses for TNFalpha, cleaved caspase 3, and PKA were done according to manufacturers instructions. Data is compared against non-treated cells and cells at the various doses. A Kruskal-Wallis test is done, with a Dunn's test for secondary analyses. […] The dose that decreases TNFalpha and caspase 3 levels also increases PKA activity."}, "Akt (Ser 473)": {"tested_on": "Akt (Ser 473)", "assay": "Western blot of phosphorylated Akt to total Akt in rat retina", "format": "in vivo", "conditions": "diabetic rats, daily 1 mM, retinal lysates", "excerpt": "as §1"}, "[1]": {"assay": "Vitreous humor levels of Compound 2 after topical administration to rats", "format": "in vivo", "conditions": "rat, 10 mg/kg", "protocol": "For data analyses B/PK parameters were derived from the obtained plasma, vitreous humor, urine and feces concentration data by standard non-compartmental analysis. Terminal half-life was determined as the ratio of ln 2 divided by λz, the negative of the slope of the linear regression of the natural log concentration vs. time profile during the terminal phase. Systemic and ocular exposure was determined as plasma or ocular area under the concentration-time curve (AUC) using the trapezoidal rule. Compound 2 concentration determination and metabolite profiling is conducted using a validated LC/MS/MS assay based on the methodology described (14-15). The LC-MS/MS system comprises a Shimadzu HPLC system (Kyoto, Japan), API-4000 Q Trap tandem mass spectrometer (Foster City, Calif., USA) equipped with a turbo ion-spray and a HTC-PAL autosampler (Leap Technologies, Carrboro, N.C., USA)."}, "[2]": {"tested_on": "electrical activity of the retina of diabetic rats", "assay": "Electroretinogram (ERG) analyses in diabetic rats", "format": "in vivo, rat", "protocol": "Each month of the experiment, electroretinogram (ERG) analyses were performed on rats from the three groups. Electroretinogram analyses were done to evaluate changes in electrical activity of the retina and as a measure of drug effectiveness. For the electroretinogram analyses, rats were dark adapted overnight. The following morning, the rats were anesthetized using an intraperitoneal injection of a ketamine (0.6 ml/kg body weight) and xylazine (0.375 ml/kg body weight) cocktail. The pupil of each eye was fully dilated using a 1% tropicamide solution (Alcon). To protect the eye and assist in maintaining a good electrical connection, a drop of methylcellulose solution was added to each eye (Celluvisc; Allergan, Irvine, Calif.). Body temperature was maintained at 37° C. with a water-based heating pad. The electroretinogram responses were recorded from both eyes simultaneously using platinum wire corneal electrodes, a forehead reference electrode, and ground electrode in the tail. The electroretinogram stimuli were delivered via the Diagnosys LLC system. All animals tested recovered from anesthesia after the electroretinogram recording sessions. No animals with gross cataract were used for electroretinogram analyses.\nElectroretinogram responses were recorded in response to brief (4 ms) white LED and then from the Xenon arc lamp delivered at 2.1-second intervals for dim stimuli and 35 second frames for brighter stimuli. The range of stimulus intensities extended from −4.0 to 1.0 log cd*s/m2 for analysis of the b-wave amplitudes. Electroretinogram waveforms were recorded with a bandwidth of 0.3-500 Hz and sampled at 2 kHz by a digital acquisition system (Diagnosys) and were analyzed using MatLab (The MathWorks, Natick, Mass.). […]\nFor assessment of the oscillatory potentials, stimuli were administered at 3 log (cd*s/m2). Data analysis for the oscillatory potentials was obtained using MatLab software with a digital band-pass filter set for 60-300 Hz and the peak wavelets of the 4 wavelets were measured from trough to peak. […]"}, "[3]": {"tested_on": "insulin receptor beta (Tyr 1150/1151)", "assay": "Western blot of phosphorylated to total insulin receptor beta in rat retina", "format": "in vivo", "conditions": "diabetic rats, 1 mM eye drops", "excerpt": "as §1"}, "cleaved caspase 3": {"tested_on": "cleaved caspase 3", "assay": "Cleaved caspase 3 ELISA of retinal lysates of diabetic rats", "format": "in vivo, rat", "conditions": "Compound 2 eye drops", "excerpt": "as §2"}, "[4]": {"assay": "Body weight, blood glucose, blood pressure and intraocular pressure in streptozotocin diabetic rats on eye drop therapy", "format": "in vivo, rat", "experimental": "Male Lewis rats purchased from Charles River were used. Diabetic rats received a single injection of 60 mg/kg streptozotocin (Fisher, Pittsburgh, Pa.). […] All rats were weighed weekly and only rats with non-fasting blood glucose levels >250 mg/dl were considered diabetic. The designation of diabetic was made at the beginning of the experiments. Glucose was measured bimonthly. No insulin was administered to the rats at any time. To determine whether topical application of Compound 2 could reach the retina and elicit response, dose and time course studies were performed. For those studies, animals were made diabetic for 2 months using STZ. For 4 days, rats received a variety of doses of either Compound 2 (1 mM to 20 mM) or PBS once or twice each day. After the 4 days of eye drop treatment to both eyes, the diabetic and control animals were euthanized. […] After determining the optimal dose and time course for eye drop treatment for Compound 2, three groups of rats were used for this part of the study (control, diabetic (Diabetic), and diabetic+eye drop (Diab+2). Within 1 week of STZ-injection, 12 rats were put onto eye drop therapy. Rats on the eye drop therapy received a daily application of 4 drops of 1 mM Compound 2 to each eye. To verify that insulin levels were lost in the diabetic animals, insulin ELISA (Rat/Mouse Insulin ELISA kit, Linco, St. Charles, Mo.) was done on blood sampled from all rats at 2 months of age. Rats were sacrificed at 2 or 8 months of age. […] Analyses on the rats were done for acute changes (8 weeks of diabetes, 45 rats) and chronic changes (8 months of diabetes, 45 rats). […] Each month, all rats were tested for visual function: electroretinogram (ERG) and live retinal imaging were performed using Optical Coherence Topography (OCT). […] While the animals were asleep for ERG analyses, blood pressure and pulse were monitored to detect potential negative cardiovascular events."}, "[5]": {"conditions": "Müller cells in high glucose, 50 nM"}, "[6]": {"conditions": "diabetic rats, daily 1 mM Compound 2 eye drops, in mmHg (unit assumed)"}, "[7]": {"conditions": "following Compound 2 treatment, in words"}},
  "note": "“Also recorded” adds a separate entry of the source.",
  "data": [
    {"smiles": "COc1cc(CCNC[C@H](O)c2ccc(O)c(O)c2)cc(OC)c1OC.Cl", "note": "(single isomer, unassigned) [Compound 2, 4-[1-hydroxy-2-(1-ethylamino-3-,4-,5-trimethoxyphenyl)ethyl]benzene-1,2-diol hydrochloride]", "values": [
      {"measurement": "TNFalpha levels in retina, 8 months", "setting": "TNFalpha; 1 mM eye drops, 8 months", "result": "levels similar to Ctrl rats"},
      {"measurement": "TNFα concentration throughout the treatment regimen", "setting": "TNFalpha; eye drop therapy", "result": "effective in reducing TNFα concentration throughout the treatment regimen"},
      {"measurement": "reduction of TNFalpha levels compared to not-treated cells", "setting": "Rat Müller cells (rMC-1); [5]", "result": 19, "unit": "%"},
      {"measurement": "reduction of caspase 3 compared to not-treated cells", "setting": "Rat Müller cells (rMC-1); [5]", "result": 55, "unit": "%"},
      {"measurement": "TNFalpha levels, in words", "setting": "Rat Müller cells (rMC-1); Müller cells in high glucose, 50 nM, vs non-treated", "result": "significantly reduced"},
      {"measurement": "cleaved caspase 3 levels, in words", "setting": "Rat Müller cells (rMC-1); Müller cells in high glucose, 50 nM, vs non-treated, hydrochloride", "result": "significantly decreased caspase 3 levels in Müller cells at the 24-hour time point; also recorded: significantly reduced levels of cleaved caspase 3"},
      {"measurement": "dose for blockade of apoptosis and TNFalpha activity compared with isoproterenol", "setting": "Rat Müller cells (rMC-1); Müller cells, 50 nM Compound 2 vs. 10 μM isoproterenol", "result": "significantly lower dose"},
      {"measurement": "ratio of phosphorylated Akt to total Akt", "setting": "Akt (Ser 473)", "result": "maintained the ratio of phosphorylated Akt at levels similar to control values"},
      {"measurement": "concentration in the vitreous humor within 1 hour", "setting": "[1]", "result": "approximately 8 ug/ml"},
      {"measurement": "time by which all detectable levels in the vitreous humor are gone", "setting": "[1]", "result": "≤ 2", "unit": "h"},
      {"measurement": "time of peak concentration in the vitreous humor", "setting": "[1]", "result": "< 1", "unit": "h"},
      {"measurement": "retinal function (ERG), delayed treatment", "setting": "[2]; 6 month diabetic rats receiving Compound 2 therapy for 2 months", "result": "had improved retinal function"},
      {"measurement": "B-wave amplitude", "setting": "[2]; daily topical 1 mM from one week after STZ, ERG after 6 weeks", "result": "inhibited the loss of B-wave amplitude"},
      {"measurement": "ERG amplitudes (a-wave, b-wave, oscillatory potentials)", "setting": "[2]; diabetic rats, topical 1 mM daily from onset, over 8 months, hydrochloride", "result": "inhibited the loss of amplitude of B-wave and oscillatory potentials; also recorded: can inhibit the loss of all three components of the ERG over the entire 8-month period"},
      {"measurement": "insulin receptor beta tyrosine phosphorylation, 2 months", "setting": "[3]; 2 months of diabetes", "result": "maintained insulin receptor beta tyrosine phosphorylation at levels similar to control animals"},
      {"measurement": "insulin receptor beta tyrosine phosphorylation, 8 months", "setting": "[3]; 8 months of diabetes", "result": "also maintained"},
      {"measurement": "cleaved caspase 3 levels in retinal lysates", "setting": "cleaved caspase 3", "result": "reduced following treatment"},
      {"measurement": "effect on body weight", "setting": "[4]; daily administration of 1 mM, in words", "result": "did not affect"},
      {"measurement": "Body wt", "setting": "[4]; diabetic rats, daily 1 mM Compound 2 eye drops", "result": "248.7 ± 8.3", "unit": "g"},
      {"measurement": "BP Systolic", "setting": "[4]; [6]", "result": "104.8 ± 13.7"},
      {"measurement": "IOP", "setting": "[4]; [6]", "result": "8.08 ± 1.17"},
      {"measurement": "effect on blood pressure", "setting": "[4]; [7]", "result": "no observed effect"},
      {"measurement": "effect on intraocular pressure", "setting": "[4]; [7]", "result": "no observed effect"}
    ]}
  ]
}
